Assay results published in patent US4952580A, “Pesticidal polyhaloalkene derivatives” (priority 1988, dated 1990).
Where two headings read alike, the source gives them in different places.

What was measured:
[1] = tested on: cyst nematode; assay: Cyst Nematode Test; type: in vivo; settings: Table 6; rate 5 ppm; read-out: Percent Control
Protocol: Compounds of this invention were tested as follows for nematicidal and anthelmintic activity as dust formulations (initial and residual activity) and as acetone/water formulations (systemic activity). The formulations are described above.
The procedures was substantially the same as described in the stunt nematode test except soybean seedlings were used. "Percent Control" (Table 6 appended) is as defined in the stunt nematode test results.

[2] = tested on: root-knot nematode; assay: Systemic Activity (basipetal, foliar spray) against root-knot nematode; type: in vivo, Meloidogyne incognita; settings: 336 h, read-out: Percent Control; for pest or weed control at 2000 ppm: Table 8, rate 2000 ppm
Outline: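 Tomato plants at 4-6 true leaves were foliar-sprayed with compound in water/acetone, soil covered, then kept 3 days at 25° C before soil inoculation with nematodes. After about two weeks, root galling versus untreated controls was scored as Knot Index and Percent Control.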

[3] = tested on: Caenorhabditis elegans; assay: C. Elegans Nematode Screening Test and Evaluation (in-vitro); settings: Caenorhabditis elegans
Outline: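 Worms (10-15 per well) in buffer with E. coli food, ampicillin and mycostatin; compound added in DMSO, 2-3 replicates per rate. Incubated 5-6 days at 20° C. Population development scored against untreated wells, noting effects such as reduced egg hatch or molting disruption.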

[4] = tested on: root-knot nematode (Meloidogyne incognita); assay: Initial Root-Knot Nematicidal Activity; type: in vivo; settings: 336 h, read-out: Percent Control; for pest or weed control at 0.078 ppm: Table 2, Application Rate 0.078 ppm; for pest or weed control at 0.156 ppm: Table 2, Application Rate 0.156 ppm; for pest or weed control at 0.312 ppm: Table 2, Application Rate 0.312 ppm; for pest or weed control at 2.5 ppm: Table 2, Application Rate 2.5 ppm
Outline: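 Compound incorporated into Meloidogyne incognita-infested soil at 10 ppm to 0.078 ppm, then planted with tomato or cucumber seedlings. Root galling scored two weeks after planting as a knot index and converted to percent control, given as averages.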

[5] = tested on: lesion nematode; assay: Lesion Nematode Test; type: in vivo; settings: read-out: Percent Control
Outline: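 Run as the stunt nematode test but on pea seedlings; compounds applied as dust formulations (initial and residual activity) or acetone/water formulations (systemic activity), with untreated samples as reference. Percent control derived by formula.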

[6] = tested on: cucumber or tomato seedling; assay: Phytotoxicity noted in Soil Mobility test; type: in vivo; set-up: key: *: Some phytotoxicity; settings: Table 7a, 5% dust, 5 ppm
Text: The ability of nematicidal compounds of the invention to move through nematode-infested soil […] infested soil, and subsequently eluting the soil with 15 cm of water (equivalent to 15 cm of rainfall) into a series of two or more pots of untreated, but nematode-infested, soil. Specifically, the pots were 8 cm diameter plastic pots containing a 10 cm^3 layer of sand over a coarse grade filter paper disc. Sufficient soil was placed over the sand to fill the pots, and a second filter paper disc was placed over the soil. Each test compound-treated pot was nested over a series of two or more pots containing untreated, but nematode-infested soil, also containing sand filter paper discs as described for the treated soil pots. Fifteen cm of water was slowly dripped into the top pots and the pots were allowed to drain for 16-18 hours to remove excess water. The top filter of each pot was then removed and the pots were planted with a cucumber or tomato seedling. […] "Knot Index" and "Percent Control" are as defined in the initial root-knot nematode tests above.

[7] = tested on: root-knot nematode; assay: Residual Root-Knot Nematicidal Activity; type: in vivo, Meloidogyne incognita; settings: Table 3a, 5% dust, 5 ppm, read-out: Percent Control
Outline: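 Soil received 5% dust formulation at 5 and 10 ppm test compound and was held in a greenhouse, then infested with root-knot nematode eggs and larvae at 1, 2 and 4 weeks post-treatment. Cucumber or tomato seedlings were planted and scored about two weeks after infestation for Knot Index and Percent Control.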

[8] = tested on: stunt nematode; assay: Stunt Nematode Test; type: in vivo
[9] = tested on: root-knot nematode; assay: Soil Mobility against root-knot nematode; type: in vivo, Meloidogyne incognita; settings: 336 h, Table 7a, 5% dust, 5 ppm, read-out: Percent Control
Outline: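 Soil mobility of the nematicidal test material was evaluated by placing treated, nematode-infested soil in 8 cm plastic pots stacked above two or more pots of untreated infested soil, each containing a 10 cm^3 sand layer and filter paper discs. Fifteen cm of water was dripped through, pots drained 16-18 hours, then were planted with cucumber or tomato seedlings and scored for Percent Control.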

[10] = tested on: corn seedling; assay: Phytotoxicity noted in Stunt Nematode Test; type: in vivo; set-up: key: *: Some phytotoxicity; settings: Table 4a; rate 5 ppm
Text: The procedure was substantially the same as in the initial root-knot nematode tests described above except that rates of application of formulated compound were 2.5 and 5 ppm in soil containing a corn seedling, with subsequent inoculation of the soil with combined larvae and adult stunt nematodes. The samples were evaulated approximately four weeks after infestation. The results (Tables 4 and 4a appended) indicate good control at the test application rates as compared with untreated samples where no control was observed. "Percent control" means the difference between average population counts between untreated and treated samples, divided by average population count of untreated sample, multiplied by 100.

[11] = Table 2, Application Rate 0.625 ppm
[12] = 168 h, inoculation 1 week post-treatment
[13] = 336 h, inoculation 2 weeks post-treatment
[14] = 672 h, inoculation 4 weeks post-treatment
[15] = 672 h, Table 4a; rate 5 ppm; read-out: Percent Control
[16] = Table 2, Application Rate 1.25 ppm

SMILES | pest or weed control at 5 ppm [1] [%] | pest or weed control at 0.078 ppm [4] [%] | pest or weed control at 0.156 ppm [4] [%] | pest or weed control at 0.312 ppm [4] [%] | pest or weed control at 0.625 ppm [4, 11] [%] | pest or weed control at 2.5 ppm [4] [%] | pest or weed control at 2.5 ppm ([5]; Table 5, rate 2.5 ppm) [%] | Some phytotoxicity ([6]; TOP container) | pest or weed control at 5 ppm [7, 12] [%] | pest or weed control at 5 ppm [7, 13] [%] | pest or weed control at 5 ppm [7, 14] [%] | pest or weed control at 5 ppm [8, 15] [%] | pest or weed control at 5 ppm ([9]; BOTTOM container) [%] | pest or weed control at 5 ppm ([9]; MIDDLE container) [%] | pest or weed control at 5 ppm ([9]; TOP container) [%] | pest or weed control at 1.25 ppm [4, 16] [%] | further results
FC(F)=C(F)CCSc1nnc(-c2cccc(Cl)c2)o1 [Compound 48, 2-(3-chlorophenyl)-5-(3,4,4-trifluoro-3-butenylthio)-1,3,4-oxadiazole] | 86 | 6 | 38 | 64 | 78 | 98 | 85 | * | 97 | 97 | 69 | 82 | – | – | – | – | pest or weed control at 2500 ppm ([2]; Table 8, rate 2500 ppm): 33%; pest or weed control at 2000 ppm ([2]; foliar): 50%; inhibition at 5 ppm ([3]; Table 9 screen, 5 ppm, read-out: Percent Inhibition of Reproduction): 100%; mortality at 5 ppm ([3]; Table 9 screen, 5 ppm, read-out: Percent Mortality): 88%; mortality at 5 ppm ([3]; Table 10 evaluation, 5 ppm, read-out: Percent Mortality): 100%; inhibition at 1.25 ppm ([3]; Table 10 evaluation, 1.25 ppm, read-out: Percent Inhibition of Reproduction): 17%; mortality at 1.25 ppm ([3]; Table 10 evaluation, 1.25 ppm, read-out: Percent Mortality): 0%; inhibition at 2.5 ppm ([3]; Table 10 evaluation, 2.5 ppm, read-out: Percent Inhibition of Reproduction): 25%; mortality at 2.5 ppm ([3]; Table 10 evaluation, 2.5 ppm, read-out: Percent Mortality): 0%; pest or weed control at 0.625 ppm [4]: 87%; pest or weed control at 1.25 ppm [4]: 95%
CCCc1nnc(SCCC(F)=C(F)F)o1 [Compound 41, 2-propyl-5-(3,4,4-trifluoro-3-butenylthio)-1,3,4-oxadiazole] | 0 | 31 | 84 | – | 98 | 100 | 64 | * | 97 | 63 | 6 | 29 | 8 | 95 | 97 | 100 | pest or weed control at 2000 ppm [2]: 17%; Some phytotoxicity ([6]; MIDDLE container): *
FC(F)=C(F)CCSc1nnc(Cc2ccccc2)o1 [Compound 42, 2-phenylmethyl-5-(3,4,4-trifluoro-3-butenylthio)-1,3,4-oxadiazole] | 30 | 38 | 50 | 86 | 98 | 100 | 82 | – | 99 | 97 | 0 | 76 | 100 | 100 | 100 | 98 | Some phytotoxicity [10]: *; pest or weed control at 2.5 ppm [5]: 73%; pest or weed control at 5 ppm ([8]; 672 h; Table 4a; rate 5 ppm; read-out: Percent Control): 33%
